This note sets out measurements from patent US10696726B2, “Insulin-incretin conjugates” (INDIANA UNIVERSITY RESEARCH AND TECHNOLOGY CORPORATION, priority 2013, dated 2020).

Values joined by “and” are separate entries in the source; they are usually repeats but may differ in a detail not shown here. Equal values may be shown once.

One test deals with human IGF-1 receptor (Homo sapiens, UniProt P08069). Briefly: IGF-1 receptor binding assay (competition, scintillation proximity). To be noted: Table 3, relative to IGF-1 in the same test.
Chain of human IGF-1 receptor (P08069 31-736 limits assumed): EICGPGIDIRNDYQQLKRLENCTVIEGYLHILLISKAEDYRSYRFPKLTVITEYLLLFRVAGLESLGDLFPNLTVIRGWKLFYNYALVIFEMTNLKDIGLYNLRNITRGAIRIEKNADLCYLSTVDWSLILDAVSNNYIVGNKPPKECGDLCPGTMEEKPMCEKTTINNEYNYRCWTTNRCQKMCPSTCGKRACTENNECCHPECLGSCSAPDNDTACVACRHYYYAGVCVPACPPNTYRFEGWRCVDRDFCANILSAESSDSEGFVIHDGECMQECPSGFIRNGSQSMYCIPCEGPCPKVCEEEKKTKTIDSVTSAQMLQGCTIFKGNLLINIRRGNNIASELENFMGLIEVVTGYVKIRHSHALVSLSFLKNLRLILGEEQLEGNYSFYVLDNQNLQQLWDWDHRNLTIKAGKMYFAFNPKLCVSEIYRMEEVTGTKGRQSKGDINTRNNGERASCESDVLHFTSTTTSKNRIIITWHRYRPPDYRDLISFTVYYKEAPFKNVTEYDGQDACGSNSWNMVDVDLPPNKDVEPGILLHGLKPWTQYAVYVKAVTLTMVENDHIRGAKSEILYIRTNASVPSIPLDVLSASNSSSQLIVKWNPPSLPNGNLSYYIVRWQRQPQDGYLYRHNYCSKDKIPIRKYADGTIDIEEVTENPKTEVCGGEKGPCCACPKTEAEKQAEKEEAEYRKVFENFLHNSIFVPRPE
Chain of human IGF-1 receptor (P08069 741-1367 partner limits assumed): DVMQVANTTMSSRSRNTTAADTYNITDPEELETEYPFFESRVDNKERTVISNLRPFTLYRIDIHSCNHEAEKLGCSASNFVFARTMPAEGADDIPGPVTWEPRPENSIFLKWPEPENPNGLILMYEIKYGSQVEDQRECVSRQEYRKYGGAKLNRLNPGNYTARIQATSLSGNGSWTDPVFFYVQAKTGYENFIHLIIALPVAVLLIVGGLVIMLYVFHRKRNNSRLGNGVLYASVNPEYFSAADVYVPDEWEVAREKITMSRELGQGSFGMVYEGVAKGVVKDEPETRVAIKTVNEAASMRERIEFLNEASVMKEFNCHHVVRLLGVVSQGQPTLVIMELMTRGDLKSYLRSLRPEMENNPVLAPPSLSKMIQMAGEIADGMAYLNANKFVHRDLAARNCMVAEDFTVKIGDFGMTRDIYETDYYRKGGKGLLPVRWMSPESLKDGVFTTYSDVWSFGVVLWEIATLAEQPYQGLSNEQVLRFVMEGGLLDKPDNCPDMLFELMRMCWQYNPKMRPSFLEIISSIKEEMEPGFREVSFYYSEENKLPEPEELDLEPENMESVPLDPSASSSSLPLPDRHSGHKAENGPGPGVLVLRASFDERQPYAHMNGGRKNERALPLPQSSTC
In test [1] the target is T1, insulin receptor (Homo sapiens, UniProt P06213). Briefly: Insulin receptor binding assay (competition, scintillation proximity). The following applies: for Ratio: Table 3, IGF-1 receptor IC50 over insulin receptor IC50.
The next test deals with T2, glucagon receptor (Homo sapiens, UniProt P47871).
T2 construct: expressed in transfected cells; host or cells: HEK293
Briefly: Glucagon functional assay, cAMP synthesis (luciferase reporter, HEK293 cells). Type of test: cell-based. The following applies: FIG. 12. For orientation: A reporter such as luciferase makes a cellular process visible.

Test [2] addresses T1, insulin receptor. Briefly: Insulin receptor phosphorylation assay in receptor transfected HEK293 cells. Type of test: cell-based. Also noted: expressed in transfected cells; host or cells: HEK293. The following applies: FIGS. 10 and 11.

On to `CC[C@H](C)[C@H](NC(=O)CN)C(=O)N[C@H](C(=O)N[C@@H](CC(=O)O)C(=O)N[C@@H](CCC(=O)O)C(=O)N[C@H]1CSSC[C@@H]2NC(=O)[C@H](CO)NC(=O)[C@H](CCCNC(=N)N)NC(=O)[C@H](Cc3ccccc3)NC(=O)[C@H](CSSC[C@H](NC(=O)[C@H](CC(C)C)NC(=O)[C@H](Cc3c[nH]cn3)NC(=O)[C@H](CCC(N)=O)NC(=O)[C@H](CC(N)=O)NC(=O)[C@@H](NC(=O)[C@@H](N)Cc3ccccc3)C(C)C)C(=O)NCC(=O)N[C@@H](CO)C(=O)N[C@@H](Cc3c[nH]cn3)C(=O)N[C@@H](CC(C)C)C(=O)N[C@@H](C(C)C)C(=O)N[C@@H](CCC(=O)O)C(=O)N[C@@H](C)C(=O)N[C@@H](CC(C)C)C(=O)N[C@@H](Cc3ccc(O)cc3)C(=O)N[C@@H](CC(C)C)C(=O)N[C@@H](C(C)C)C(=O)N[C@H](C(=O)NCC(=O)N[C@@H](CC(=O)O)C(=O)N[C@@H](CCCNC(=N)N)C(=O)NCC(=O)N[C@@H](Cc3ccccc3)C(=O)N[C@@H](Cc3ccc(O)cc3)C(=O)N[C@@H](Cc3ccccc3)C(=O)N[C@@H](CC(N)=O)C(=O)N[C@@H](CCCCN)C(=O)N3CCC[C@H]3C(=O)N[C@H](C(N)=O)[C@@H](C)O)CSSC[C@@H](C(=O)N[C@@H](C)C(N)=O)NC(=O)[C@H](Cc3ccc(O)cc3)NC(=O)[C@H](CCSC)NC(=O)[C@H](CCC(=O)O)NC(=O)[C@H](CC(C)C)NC(=O)[C@H](CCCNC(=N)N)NC(=O)[C@H](CCCNC(=N)N)NC(=O)[C@H](CC(C)C)NC(=O)[C@H](CC(=O)O)NC2=O)NC1=O)C(C)C` [IGF-1 A: In (1-17)-IGF-1 B (18-30)], for which the “IGF-1 Receptor % IGF-1 (in test)” value on human IGF-1 receptor was 0.9%. Also, the Ratio on insulin receptor [1] is recorded as 22.6. In addition, the “Insulin Receptor % insulin (in test)” value at insulin receptor [1] (Table 3, relative to insulin in the same test) is 14.0% and 11.3% and 20.1%. Besides, at insulin receptor [1] (Table 3, relative to native insulin taken as 0.6 nM), the “Insulin Receptor % native insulin activity (0.6 nM)” value is 21.7% and 22.5% and 24.2%.
Take `CC[C@H](C)[C@H](NC(=O)CN)C(=O)N[C@H](C(=O)N[C@@H](CC(=O)O)C(=O)N[C@@H](CCC(=O)O)C(=O)N[C@H]1CSSC[C@@H]2NC(=O)[C@H](CO)NC(=O)[C@H](CCCNC(=N)N)NC(=O)[C@H](Cc3ccccc3)NC(=O)[C@H](CSSC[C@H](NC(=O)[C@H](CC(C)C)NC(=O)[C@@H](NC(=O)[C@H](CCC(=O)O)NC(=O)[C@@H]3CCCN3C(=O)CN)[C@@H](C)O)C(=O)NCC(=O)N[C@@H](CO)C(=O)N[C@@H](Cc3c[nH]cn3)C(=O)N[C@@H](CC(C)C)C(=O)N[C@@H](C(C)C)C(=O)N[C@@H](CCC(=O)O)C(=O)N[C@@H](C)C(=O)N[C@@H](CC(C)C)C(=O)N[C@@H](Cc3ccc(O)cc3)C(=O)N[C@@H](CC(C)C)C(=O)N[C@@H](C(C)C)C(=O)N[C@H](C(=O)NCC(=O)N[C@@H](CC(=O)O)C(=O)N[C@@H](CCCNC(=N)N)C(=O)NCC(=O)N[C@@H](Cc3ccccc3)C(=O)N[C@@H](Cc3ccc(O)cc3)C(=O)N[C@@H](Cc3ccccc3)C(=O)N[C@@H](CC(N)=O)C(=O)N[C@@H](CCCCN)C(=O)N3CCC[C@H]3C(=O)N[C@H](C(N)=O)[C@@H](C)O)CSSC[C@@H](C(=O)N[C@@H](C)C(N)=O)NC(=O)[C@H](Cc3ccc(O)cc3)NC(=O)[C@H](CCSC)NC(=O)[C@H](CCC(=O)O)NC(=O)[C@H](CC(C)C)NC(=O)[C@H](CCCNC(=N)N)NC(=O)[C@H](CCCNC(=N)N)NC(=O)[C@H](CC(C)C)NC(=O)[C@H](CC(=O)O)NC2=O)NC1=O)C(C)C`: the Ratio on insulin receptor [1] worked out at 82.6.
For “GLP-1: native GLP-1: GLP-1(7-36) amide SEQ ID NO: 703 or GLP-1(7-37) acid SEQ ID NO: 704 [reference compound]”, the “in vitro glucagon receptor activity (EC50 values, in words)” value with glucagon receptor was “poor activity at the glucagon receptor”. Moreover, the “in vitro insulin receptor activity (EC50 values, in words)” value with insulin receptor [2] was “poor activity at the insulin receptor”.
`CC[C@H](C)[C@H](NC(=O)CN)C(=O)N[C@H](C(=O)N[C@@H](CC(=O)O)C(=O)N[C@@H](CCC(=O)O)C(=O)N[C@H]1CSSC[C@@H]2NC(=O)[C@H](CO)NC(=O)[C@H](CCCNC(=N)N)NC(=O)[C@H](Cc3ccccc3)NC(=O)[C@H](CSSC[C@H](NC(=O)[C@H](CC(C)C)NC(=O)[C@@H](NC(=O)[C@H](CCC(=O)O)NC(=O)[C@@H]3CCCN3C(=O)CN)[C@@H](C)O)C(=O)NCC(=O)N[C@@H](C)C(=O)N[C@@H](CCC(=O)O)C(=O)N[C@@H](CC(C)C)C(=O)N[C@@H](C(C)C)C(=O)N[C@@H](CC(=O)O)C(=O)N[C@@H](C)C(=O)N[C@@H](CC(C)C)C(=O)N[C@@H](Cc3ccc(O)cc3)C(=O)N[C@@H](CC(C)C)C(=O)N[C@@H](C(C)C)C(=O)N[C@H](C(=O)NCC(=O)N[C@@H](CC(=O)O)C(=O)N[C@@H](CCCNC(=N)N)C(=O)NCC(=O)N[C@@H](Cc3ccccc3)C(=O)N[C@@H](Cc3ccc(O)cc3)C(=O)N[C@@H](Cc3ccccc3)C(=O)N[C@@H](CC(N)=O)C(=O)N[C@@H](CCCCN)C(=O)N3CCC[C@H]3C(=O)N[C@H](C(N)=O)[C@@H](C)O)CSSC[C@@H](C(=O)N[C@@H](C)C(N)=O)NC(=O)[C@H](Cc3ccc(O)cc3)NC(=O)[C@H](CCSC)NC(=O)[C@H](CCC(=O)O)NC(=O)[C@H](CC(C)C)NC(=O)[C@H](CCCNC(=N)N)NC(=O)[C@H](CCCNC(=N)N)NC(=O)[C@H](CC(C)C)NC(=O)[C@H](CC(=O)O)NC2=O)NC1=O)C(C)C` [IGF1 (Y^B16L^B17)]: the “insulin receptor binding relative to native insulin (in words)” value on insulin receptor [1] (FIGS. 2-4, Tables 1 and 2) is “highly potent agonists of the insulin receptor”. In addition, on insulin receptor [1] (Table 2, relative to Insulin Standard), the “% of Insulin Activity” value was 262%.
